How the values were obtained:
[1] = target: GCN2 kinase (Homo sapiens, UniProt Q9P2K8); test: GCN2 enzyme inhibition assay (Transcreener ADP2 fluorescence polarization); type: biochemical; details: 280 μM ATP
How it was run: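 4 nM GCN2 + 200 μM (RS)7 + compound (0–8 μM), 10 min preinc.; start with ATP (280 μM final); 1 h, 25 °C; pH 7.5 Tris/NaCl/MgCl2/DTT; ADP FP readout; IC50, Ki(app) via tight-binding fit.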

[2] = target: intracellular GCN2 (phosphorylation of the GCN2 substrate eIF2α) (Homo sapiens, UniProt Q9P2K8); test: GCN2 cellular inhibition assay (AlphaScreen SureFire P-eIF2α Ser51, borrelidin-treated U2OS cells); type: cell-based; details: biomarker assay, phosphorylated eIF2α Ser51 in borrelidin-treated U2OS cells
Chain of intracellular GCN2 (phosphorylation of the GCN2 substrate eIF2α) (Q9P2K8 whole entry): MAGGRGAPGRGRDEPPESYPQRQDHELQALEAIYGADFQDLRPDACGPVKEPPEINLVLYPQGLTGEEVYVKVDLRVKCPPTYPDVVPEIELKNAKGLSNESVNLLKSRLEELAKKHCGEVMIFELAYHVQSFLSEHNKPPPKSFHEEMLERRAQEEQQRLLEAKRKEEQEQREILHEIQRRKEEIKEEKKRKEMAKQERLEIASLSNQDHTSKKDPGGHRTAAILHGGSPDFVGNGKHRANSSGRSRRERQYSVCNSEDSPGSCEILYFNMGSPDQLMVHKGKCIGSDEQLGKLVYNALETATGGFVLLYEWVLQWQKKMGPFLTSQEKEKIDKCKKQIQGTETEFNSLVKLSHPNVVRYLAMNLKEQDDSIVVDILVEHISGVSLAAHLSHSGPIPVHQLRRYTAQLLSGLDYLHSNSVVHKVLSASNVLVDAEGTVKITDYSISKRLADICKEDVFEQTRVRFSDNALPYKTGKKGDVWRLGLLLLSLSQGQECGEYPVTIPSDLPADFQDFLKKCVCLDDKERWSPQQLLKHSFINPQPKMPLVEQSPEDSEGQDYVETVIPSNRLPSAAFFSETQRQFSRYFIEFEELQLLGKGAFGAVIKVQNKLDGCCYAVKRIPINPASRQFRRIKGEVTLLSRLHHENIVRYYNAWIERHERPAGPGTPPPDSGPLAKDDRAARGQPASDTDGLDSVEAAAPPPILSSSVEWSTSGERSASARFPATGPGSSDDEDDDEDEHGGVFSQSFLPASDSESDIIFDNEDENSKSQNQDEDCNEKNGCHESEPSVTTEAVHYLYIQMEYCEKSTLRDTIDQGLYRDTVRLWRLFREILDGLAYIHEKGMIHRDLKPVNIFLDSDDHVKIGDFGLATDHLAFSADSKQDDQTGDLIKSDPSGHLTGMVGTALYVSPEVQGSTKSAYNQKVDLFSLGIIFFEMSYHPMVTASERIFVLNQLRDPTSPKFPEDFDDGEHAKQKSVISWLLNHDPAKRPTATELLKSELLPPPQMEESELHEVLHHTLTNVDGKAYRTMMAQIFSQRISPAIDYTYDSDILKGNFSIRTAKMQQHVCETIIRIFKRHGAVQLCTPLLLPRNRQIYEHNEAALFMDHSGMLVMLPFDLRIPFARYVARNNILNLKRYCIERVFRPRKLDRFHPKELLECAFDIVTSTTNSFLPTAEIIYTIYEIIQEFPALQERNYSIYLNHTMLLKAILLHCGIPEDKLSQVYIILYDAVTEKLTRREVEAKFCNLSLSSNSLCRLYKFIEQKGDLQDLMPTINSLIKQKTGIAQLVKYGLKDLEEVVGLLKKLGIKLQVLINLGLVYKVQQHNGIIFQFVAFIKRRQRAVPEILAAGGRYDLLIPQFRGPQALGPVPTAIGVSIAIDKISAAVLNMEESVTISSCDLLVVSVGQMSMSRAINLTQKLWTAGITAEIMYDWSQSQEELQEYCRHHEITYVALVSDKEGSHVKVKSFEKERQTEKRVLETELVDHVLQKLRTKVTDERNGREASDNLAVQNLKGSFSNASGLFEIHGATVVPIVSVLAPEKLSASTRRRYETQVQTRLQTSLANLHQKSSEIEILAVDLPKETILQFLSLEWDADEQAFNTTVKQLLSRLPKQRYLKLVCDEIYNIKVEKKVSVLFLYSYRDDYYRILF
How it was run: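 Read-out: AlphaScreen SureFire phospho-eIF2α (Ser51) signal in U2OS lysates. Cells get 4-fold compound dilutions (top 40 μM final) plus 10 μM borrelidin, 1 h, 37 °C. Percent inhibition is relative to borrelidin-alone controls.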

[3] = Enzyme activity for compounds of Formula IV, Ki(app), 25° C.
[4] = compounds of Formula II, 4 nM GCN2 kinase

Chain of GCN2 kinase (Q9P2K8 whole entry): as above

Ki [1, 3]	IC50 ([2]; compounds of Formula IV)	Ki [1, 4]	IC50 ([2]; compounds of Formula II)	Compound
< 10 nM	< 500 nM			Cc1nc(C2CCCN(c3ccnc(-c4cnc5cnc(Br)cn45)n3)C2)c[nH]1 (single isomer, unassigned) [IV-375, 6-Bromo-3-(4-(3-(2-methyl-1H-imidazol-4-yl)piperidin-1-yl)pyrimidin-2-yl)imidazo[1,2-a]pyrazine]
10 to 100 nM	500 to 5000 nM			CC1CN(c2ccnc(-c3cnc4cnc(C(F)(F)F)cn34)n2)CC(c2cn[nH]c2)N1 (single isomer, unassigned) [IV-461, 3-(4-(3-Methyl-5-(1H-pyrazol-4-yl)piperazin-1-yl)pyrimidin-2-yl)-6-(trifluoromethyl)imidazo[1,2-a]pyrazine]
100 to 1000 nM	> 5000 nM			OCc1cc(C2CCCN(c3ccnc(-c4cnc5cnc(C(F)F)cn45)n3)C2)n[nH]1 (centres unmarked) [IV-93, (3-(1-(2-(6-(Difluoromethyl)imidazo[1,2-a]pyrazin-3-yl)pyrimidin-4-yl)piperidin-3-yl)-1H-pyrazol-5-yl)methanol]
100 to 1000 nM	> 5000 nM			O=C1NCCN2CCN(c3ccnc(-c4cnc5cnc(C(F)F)cn45)n3)CC12 (centres unmarked) [IV-86, 8-(2-(6-(Difluoromethyl)imidazo[1,2-a]pyrazin-3-yl)pyrimidin-4-yl)hexahydro-2H-pyrazino[1,2-a]pyrazin-1(6H)-one]
100 to 1000 nM	> 5000 nM			CNC(=O)c1cc(C2CCCN(c3ccnc(-c4cnc5cnc(C(F)F)cn45)n3)C2)n[nH]1 (centres unmarked) [IV-95, 3-(1-(2-(6-(Difluoromethyl)imidazo[1,2-a]pyrazin-3-yl)pyrimidin-4-yl)piperidin-3-yl)-N-methyl-1H-pyrazole-5-carboxamide]
10 to 100 nM	< 500 nM			FC(F)(F)c1cn2c(-c3ccnc(N4CCOC(c5cn[nH]c5)C4)n3)cnc2cn1 (centres unmarked) [IV-40, 2-(1H-Pyrazol-4-yl)-4-(4-(6-(trifluoromethyl)imidazo[1,2-a]pyrazin-3-yl)pyrimidin-2-yl)morpholine]
100 to 1000 nM	> 5000 nM			FC(F)(F)c1cn2c(-c3nsc(N4CCOC(c5cn[nH]c5)C4)n3)cnc2cn1 (centres unmarked) [IV-704, 2-(1H-pyrazol-4-yl)-4-(3-(6-(trifluoromethyl)imidazo[1,2-a]pyrazin-3-yl)-1,2,4-thiadiazol-5-yl)morpholine]
10 to 100 nM	500 to 5000 nM			CC1C(c2cn[nH]c2)CCN1c1ccnc(-c2cnc3cnc(C(F)(F)F)cn23)n1 (centres unmarked) [IV-688, 3-(4-(2-Methyl-3-(1H-pyrazol-4-yl)pyrrolidin-1-yl)pyrimidin-2-yl)-6-(trifluoromethyl)imidazo[1,2-a]pyrazine]
100 to 1000 nM	> 5000 nM			FC(F)c1cn2c(-c3nccc(N4CCCC(c5cscn5)C4)n3)cnc2cn1 (centres unmarked) [IV-174, 4-(1-(2-(6-(Difluoromethyl)imidazo[1,2-a]pyrazin-3-yl)pyrimidin-4-yl)piperidin-3-yl)thiazole]
100 to 1000 nM	> 5000 nM			O=C1CCCC2CN(c3ccnc(-c4cnc5cnc(C(F)F)cn45)n3)CCN12 (centres unmarked) [IV-99, 2-(2-(6-(Difluoromethyl)imidazo[1,2-a]pyrazin-3-yl)pyrimidin-4-yl)octahydro-6H-pyrido[1,2-a]pyrazin-6-one]
< 10 nM	< 500 nM			CC1CN(c2ccnc(-c3cnc4cnc(Cl)cn34)n2)C(C)C(c2cn[nH]c2)N1 (single isomer, unassigned) [IV-247, 6-Chloro-3-(4-(2,5-dimethyl-3-(1H-pyrazol-4-yl)piperazin-1-yl)pyrimidin-2-yl)imidazo[1,2-a]pyrazine]
100 to 1000 nM	> 5000 nM			OC[C@H]1CCCCN1c1ccnc(-c2cnc3cnc(C(F)F)cn23)n1 [IV-136, (R)-(1-(2-(6-(Difluoromethyl)imidazo[1,2-a]pyrazin-3-yl)pyrimidin-4-yl)piperidin-2-yl)methanol]
100 to 1000 nM	> 5000 nM			CNS(=O)(=O)C1CCN(c2ccnc(-c3cnc4cnc(C(F)F)cn34)n2)C1 (centres unmarked) [IV-71, 1-(2-(6-(Difluoromethyl)imidazo[1,2-a]pyrazin-3-yl)pyrimidin-4-yl)-N-methylpyrrolidine-3-sulfonamide]
100 to 1000 nM	> 5000 nM			CP(C)(=O)C1CC(c2cn[nH]c2)CN(c2ccnc(-c3cnc4cnc(C(F)(F)F)cn34)n2)C1 (centres unmarked) [IV-590, (5-(1H-Pyrazol-4-yl)-1-(2-(6-(trifluoromethyl)imidazo[1,2-a]pyrazin-3-yl)pyrimidin-4-yl)piperidin-3-yl)dimethylphosphine oxide]
100 to 1000 nM	> 5000 nM			NCCC1CCCN(c2ccnc(-c3cnc4cnc(C(F)(F)F)cn34)n2)C1 (centres unmarked) [IV-488]
100 to 1000 nM	> 5000 nM			O=C1NCCC12CCN(c1ccnc(-c3cnc4cnc(C(F)F)cn34)n1)C2 (centres unmarked) [IV-69, 7-(2-(6-(Difluoromethyl)imidazo[1,2-a]pyrazin-3-yl)pyrimidin-4-yl)-2,7-di azaspiro[4.4]nonan-1-one]
100 to 1000 nM	> 5000 nM			Cc1[nH]ncc1C1CN(c2ccnc(-c3cnc4cnc(C(F)F)cn34)n2)CC(C)N1 (single isomer, unassigned) [IV-462, 6-(Difluoromethyl)-3-(4-(3-methyl-5-(5-methyl-1H-pyrazol-4-yl)piperazin-1-yl)pyrimidin-2-yl)imidazo[1,2-a]pyrazine]

Further lines, the compound ahead of its results:

Compound	Ki [1, 3]	IC50 ([2]; compounds of Formula IV)	Ki [1, 4]	IC50 ([2]; compounds of Formula II)
CS(=N)(=O)CC1CCCN(c2cc(-c3cnc4ccc(C(F)F)nn34)ccn2)C1 (centres unmarked) [II-138, ((1-(4-(6-(Difluoromethyl)imidazo[1,2-b]pyridazin-3-yl)pyridin-2-yl)piperidin-3-yl)methyl)(imino)(methyl)-λ^6-sulfanone]			10 to 1000 nM	500 to 5000 nM
CS(=O)(=O)NCC1CN(c2cc(-c3cnc4ccc(C(F)F)nn34)ncn2)CC2(CC2)C1(F)F (centres unmarked) [II-528, N-((5-(6-(6-(Difluoromethyl)imidazo[1,2-b]pyridazin-3-yl)pyrimidin-4-yl)-8,8-difluoro-5-azaspiro[2.5]octan-7-yl)methyl)methanesulfonamide]			< 10 nM	< 500 nM
CC1CC(N=S(C)(C)=O)CN(c2cc(-c3cnc4ccc(C(N)=O)nn34)ncn2)C1 (centres unmarked) [II-726, 3-(6-(3-((Dimethyl(oxo)-λ^6-sulfanylidene)amino)-5-methylpiperidin-1-yl)pyrimidin-4-yl)imidazo[1,2-b]pyridazine-6-carboxamide]			10 to 1000 nM	> 5000 nM
CN1CCN(c2cc(-c3cnc4ccc(C(F)F)nn34)ncn2)C[C@H]1CNS(C)(=O)=O [II-410]			10 to 1000 nM	500 to 5000 nM
CC1(C)COC(CNS(C)(=O)=O)CN1c1cc(-c2cnc3ccc(C(F)F)nn23)ncn1 (centres unmarked) [II-457, N-((4-(6-(6-(Difluoromethyl)imidazo[1,2-b]pyridazin-3-yl)pyrimidin-4-yl)-5,5-dimethylmorpholin-2-yl)methyl)methanesulfonamide]			10 to 1000 nM	500 to 5000 nM
CN1CCN(c2cc(-c3cnc4ccc(C(F)F)nn34)ncn2)CC1CC(N)=O (centres unmarked) [II-492, 2-(4-(6-(6-(Difluoromethyl)imidazo[1,2-b]pyridazin-3-yl)pyrimidin-4-yl)-1-methylpiperazin-2-yl)acetamide]			10 to 1000 nM	500 to 5000 nM
CS(=O)(=O)NCC1CCN(c2cc(-c3cnc4ccc(C(F)F)nn34)ncn2)C1 (centres unmarked) [II-394, N-((1-(6-(6-(Difluoromethyl)imidazo[1,2-b]pyridazin-3-yl)pyrimidin-4-yl)pyrrolidin-3-yl)methyl)methanesulfonamide]			10 to 1000 nM	500 to 5000 nM
Cn1cc(C(=O)N2CCCC(c3cc(-c4cnc5ccc(C(F)F)nn45)ncn3)C2)cn1 (centres unmarked) [II-41, (3-(6-(6-(Difluoromethyl)imidazo[1,2-b]pyridazin-3-yl)pyrimidin-4-yl)piperidin-1-yl)(1-methyl-1H-pyrazol-4-yl)methanone]			10 to 1000 nM	500 to 5000 nM
CC1C(CNS(C)(=O)=O)NCCN1c1cc(-c2cnc3ccc(C(F)(F)F)nn23)ncn1 (centres unmarked) [II-466, N-((3-Methyl-4-(6-(6-(trifluoromethyl)imidazo[1,2-b]pyridazin-3-yl)pyrimidin-4-yl)piperazin-2-yl)methyl)methanesulfonamide]			< 10 nM	< 500 nM
Cc1cc(-c2cnc3ccc(C(F)F)nn23)cc(N2CCCC(CNS(C)(=O)=O)C2)n1 (centres unmarked) [II-129, N-((1-(4-(6-(Difluoromethyl)imidazo[1,2-b]pyridazin-3-yl)-6-methylpyridin-2-yl)piperidin-3-yl)methyl)methanesulfonamide]			< 10 nM	500 to 5000 nM
CC1C(CNS(C)(=O)=O)C(F)(F)CCN1c1cc(-c2cnc3ccc(C(F)F)nn23)ncn1 (centres unmarked) [II-431, N-((1-(6-(6-(Difluoromethyl)imidazo[1,2-b]pyridazin-3-yl)pyrimidin-4-yl)-4,4-difluoro-2-methylpiperidin-3-yl)methyl)methanesulfonamide]			< 10 nM	< 500 nM
CC(=O)N1CCN(c2cc(-c3cnc4ccc(N5CCC(N)C5)nn34)ccn2)CC1 (centres unmarked) [II-736, 1-(4-(4-(6-(3-aminopyrrolidin-1-yl)imidazo[1,2-b]pyridazin-3-yl)pyridin-2-yl)piperazin-1-yl)ethan-1-one]			> 1000 nM	> 5000 nM
CS(=O)(=O)NCC1CN(c2cc(-c3cnc4ccc(Cl)nn34)ccn2)CCO1 (centres unmarked) [II-184, N-((4-(4-(6-Chloroimidazo[1,2-b]pyridazin-3-yl)pyridin-2-yl)morpholin-2-yl)methyl)methanesulfonamide]			10 to 1000 nM	500 to 5000 nM
CS(=O)(=O)N1CC2(CCCN(c3cncc(-c4cnc5ccc(C(F)F)nn45)c3)C2)C1 [II-101, 6-(Difluoromethyl)-3-(5-(2-(methylsulfonyl)-2,6-diazaspiro[3.5]nonan-6-yl)pyridin-3-yl)imidazo[1,2-b]pyridazine]			< 10 nM	500 to 5000 nM
